Like-named read-outs stand apart in the source and are kept apart here. Each block holds one molecule with its values, some of them ahead of it.
What was measured:
[1] = preliminary toxicity studies in mice; assay type: in vivo; settings: 6 week old mice
Method: (§1) Preliminary toxicity studies in mice have established an LD50 of 300 μg./25 g of body weight in 6 week old mice for the compound of Example 1. The compounds may be used as anti-bacterial or anti-viral agents in plants or in animals. Virus infections such as West Nile virus infections in mice are susceptible to the compound of the Example 1 at a dose of 10 μg/day/mouse. Plant bacterial infections such as crown gall caused by Agrobacterium tumefaciens may be treated or prevented by the application of a 0.1% solution of compounds of the invention.

[2] = tested on: West Nile virus; assay: West Nile virus infections in mice; assay type: in vivo; settings: 10 μg/day/mouse
Method: as §1

[3] = tested on: producer T-cell lymphocytes; assay: lymphokine production in producer T-cell lymphocytes in vivo; settings: alone
[4] = tested on: IL-2 producer cells; assay: proliferation of IL-2 producer cells; assay type: cell-based
[5] = tested on: producer T-cell lymphocytes; assay: lymphokine production in producer T-cell lymphocytes in vitro; assay type: cell-based; settings: alone
[6] = solubilization in aqueous buffer; assay type: physicochemical
Excerpt: The complexes of the invention may be formed by contacting a compound of Formulas A-E with a non-toxic pharmaceutically acceptable complexing agent which forms a water soluble complex with said tellurium or selenium compound. Suitable complexing agents include hydroxy polycarboxylic acids, polycarboxylic acids or polyhydroxy polycarboxylic acids. Generally, it is preferred to prepare the complexes of the invention by contacting a compound of Formulas A-E with a buffer system containing either citric acid or tartaric acid and a corresponding alkali metal salt thereof, such as sodium or potassium.
Generally equimolar amounts of acids and the corresponding alkali metal salts may be combined in aqueous solutions with a compound of Formulas A-E to form the complex of the invention; 0.05M-0.5M concentration of the buffer are preferred but higher or lower amounts may be utilized provided that the concentration is adequate to dissolve the particular compound of Formulas A-E. Higher molarities may be used to provide concentrates that may be diluted prior to IV administration or to prepare other dosage forms. The amount of the compound of Formulas A-E is dependent on the ultimate use of the product. […] This is in contrast to the phosphate buffer (PBS) from which only about 200 mcg/ml of ammonium trichloro (dioxoethylene-0,0') tellurate can be solubilized. […]

[7] = tested on: IL-2; assay: mouse spleen assay, IL-2 activity of supernatants (tritiated thymidine); assay type: cell-based, mouse (male Balb-c); settings: for IL-2 activity, 12.5% supernatant / IL-2 activity, 25% supernatant: Table 1, PMA, 96 h; for IL-2 production, supernatant 12.5% / IL-2 production, supernatant 25%: Table 2; for IL-2 activity, 12.5% supernatant / IL-2 production, supernatant 12.5%: 12.5% supernatant; for IL-2 activity, 25% supernatant / IL-2 production, supernatant 25%: 25% supernatant
Method: Two citrate buffer solutions are prepared by combining aqueous 0.05M sodium citrate with 0.05M citric acid or 0.1M sodium citrate and 0.1M citric acid. […] To these solutions are added up to 5 mg/ml of ammomium trichloro (dioxoethylene-0,0') tellurate.
After storage at various temperatures for about two and a half months, dilutions of these solutions were prepared and a mouse spleen assay was performed as follows:
Spleens were removed from male Balb-c mice 6 to 8 weeks of age. The spleen cells were pushed through stainless steel 60 mesh (U.S. standard) nets resting in […] Petri dishes containing PBS in order to separate the cells. The cells were then collected into centrifuge tubes and spun at 1000 rpm for 10 minutes. The supernatant was discarded and cells were treated with 5 ml of hypotonic buffer (0.15 MNH4 Cl; 0.01M KHCO3 dissolved in double distilled water, pH 7.2) for exactly two minutes. Thereafter, PBS* was added to the cells amd the test tubes were centrifuged for 10 minutes at 1000 rpm. The cells were rinsed twice and counted in a heamocytometer using trypan blue to test for viability. The cells were brought to a concentration of 10^7 viable cells/ml. […] Thereafter, the cells were incubated at 37° C., 7.5% CO2 for 96 h. Supernatants were collected and assayed for IL-2 activity using tritiated thymidine (^3 H-TdR).
A 0.04M tartrate buffer in also prepared using the same procedures. The complex is formed by adding ammonium trichloro (dioxoethylene-0,0'-) tellurate to the aqueous tartrate buffer. The effectiveness of the complex in stimulating IL-2 production was determined in the mouse spleen assay.

[8] = tested on: human mononuclear cells; assay: stimulation of human mononuclear cells, proliferation (3H-methylthymidine); assay type: cell-based; set-up: unit not given here; settings: Table 3
Method: Citrate and tartrate complexes of ammonium trichloro (dioxoethylene-0,0') tellurate are tested for the stimulation of human mononuclear cells.
Venous whole blood (with heparin; Evans 10 IU/ml blood) is diluted with RPMI in a ratio of 1:1. […] Each tube is provided with 3 ml Lymphoprep and 6 to 7 ml diluted blood. The tubes are centrifuged 30 minutes at 1600 rpm at room temperature. After the centrifugation mononuclear cells are collected from the interphase fraction and washed with RPMI three times. The cells are resuspended in RPMI, counted on a hemocytometer, using trypan blue to test for viability and then are brought to a concentration of […] in enriched RPMI. The concentrations set forth in Table 3 were added in a volume of 10% of cell mixture. Aliquots of 0.2 ml from each sample were placed in wells of microplates (NUNC) (triplicates). The microplates are incubated for 72 hours at 37° C. after which ^ 3 H-methylthymidine, 1U Ci/well (Nuclear Research Center, Israel) are added to the cultures. Cells were further incubated overnight and harvested with a cell harvester.

SMILES: Cl[Te]1(Cl)(Cl)OCCO1.N [Example 1, ammomium trichloro (dioxoethylene-0,0') tellurate]
LD50 [1]: 300 μg./25 g of body weight
susceptibility of West Nile virus infections [2]: susceptible

SMILES: O=[Te]=O [TeO2]
induction of lymphokine production in vivo [3]: will induce lymphokine production
proliferation in producing cells such as IL-2 producer cells [4]: will not cause proliferation
induction of lymphokine production in vitro [5]: will induce lymphokine production

solubility ([6]; citrate buffer, aqueous buffer, read-out: concentration solubilized in citrate): ≥ 5000 µg/mL
solubility ([6]; phosphate buffer (pbs), read-out: concentration solubilized in phosphate buffer): ~200 µg/mL
SMILES: Cl[TeH]1(Cl)(Cl)OCCO1 [ammonium trichloro (dioxoethylene-0,0') tellurate]
IL-2 activity, 12.5% supernatant ([7]; 0.05 μg/ml): 1865 cpm
IL-2 activity, 25% supernatant ([7]; 0.05 μg/ml): 3762 cpm
IL-2 activity, 12.5% supernatant ([7]; 0.1 μg/ml): 28035 cpm
IL-2 activity, 25% supernatant ([7]; 0.1 μg/ml): 44378 cpm
IL-2 activity, 25% supernatant ([7]; 0.5 μg/ml ammonium trichloro(dioxoethylene) tellurate): 43833 cpm
IL-2 activity, 12.5% supernatant ([7]; 0.5 μg/ml): 35270 cpm
IL-2 production, supernatant 12.5% ([7]; 0.05 μg/ml): 1865 cpm
IL-2 production, supernatant 12.5% ([7]; 0.1 μg/ml): 28035 cpm
IL-2 production, supernatant 25% ([7]; 0.1 μg/ml): 44378 cpm
IL-2 production, supernatant 12.5% ([7]; 0.5 μg/ml): 35270 cpm
IL-2 production, supernatant 25% ([7]; 0.5 μg/ml): 43833 cpm
IL-2 production, supernatant 25% [7]: 3762 cpm
proliferation of mononuclear cells ([8]; 0.05 μg/ml, PMA 0.5 ng/ml cells): 6663
proliferation of mononuclear cells ([8]; 0.05 μg/ml, PMA 1.5 ng/ml cells): 12923
proliferation of mononuclear cells ([8]; 0.1 μg/ml, PMA 0.5 ng/ml cells): 19810
proliferation of mononuclear cells ([8]; 0.1 μg/ml, PMA 1.5 ng/ml cells): 42857
proliferation of mononuclear cells ([8]; 0.5 μg/ml, PMA 0.5 ng/ml cells): 2945
proliferation of mononuclear cells ([8]; 0.5 μg/ml, PMA 1.5 ng/ml cells): 3287
